Results as given in US4604382A, “3'-amino-2',3'-dideoxycytidine and the pharmacologically acceptable salts thereof” (Research Corporation, priority 1983, dated 1986).
Converted amounts (≈) assume the structure as drawn. Where two headings read alike, the source gives them in different places.

Assays:
L1210 cells [1] = assay type: cell-based, mouse
Description: (§1) Mouse L1210 and S-180 cells were maintained as suspension cultures in Fischer's medium supplemented with 10% horse serum at 37° C. in a humidified atmosphere of 5% CO2 -95% air. Under these conditions the generation time for L1210 and S-180 cells is approximately 12 and 18 hours, respectively. The test compound at the given concentration, was added to L1210 and S-180 cells (2×10^4 cells/mL) which were in their exponential phase of growth. The increase in cell number of the drug-free culture (control), as well as that of the cultures supplemented with the test compound, was determined after 24, 48 and 72 hours of growth.
(§2) At a 5 μM concentration of this compound the addition of 25 μM and 100 μM of 2'-deoxycytidine prevented the cytotoxicity of the novel compound against L1210 cells by 35% and 100% respectively.

S-180 cells [2] = assay type: cell-based, mouse; conditions: 25 μM 2'-deoxycytidine added to 20 μM of the new compound
Description: as §1, §2

[3] = system: cytotoxicity of the novel compound; assay type: cell-based; conditions: in words
Description: as §2

[4] = Water solubility of the new compound; assay type: physicochemical; conditions: at 23° C.
Description: The new compound has excellent water solubility (~0.5 g/mL at 23° C.) and readily forms non-toxic acid addition salts with a variety of pharmacologically acceptable organic and inorganic salt-formingreagents. Thus, acid addition salts formed by admixture of the organic free base with up to two equivalents of an acid, suitably in a neutral solvent, are formed with such acids as sulfuric, phosphoric, hydrochloric,hydrobromic, sulfamic, citric, lactic, malic, succinic, tartaric, acetic, benzoic, gluconic, ascorbic, and the like. For purposes of this invention, the free base is equivalent to the non-toxic acid addition salts. The acid addition salts are, in general, crystalline solids, very soluble in water, relatively soluble in methanol and ethanol but relatively insoluble in non-polar organic solvents such as diethyl ether, benzene, toluene, and the like.

L1210 leukemia = L1210 leukemia in CDF1 mice, survival time (T/C); assay type: in vivo, mouse (CDF1 female mice); conditions: 160 mg/kg i.p. twice a day for 3 days, starting 24 hours post inoculation of 1×10^5 L1210 cells
Description: Transplantation of L1210 ascites cells was carried out by withdrawing peritoneal fluid from donor CDF1 mice bearing 7-day growths. The suspension was centrifuged for 2 minutes (1600 g), the supernatant peritoneal fluid was decanted, and a 10-fold dilution with isotonic saline was made. The cell number was determined with a Coulter particle counter and the cell population was adjusted to 10^6 cells/mL. One-tenth mL of the resulting cell suspension (containing approximately 10^5 cells) was injected intraperitoneally into each animal. The drug was administered by intraperitoneal injection, beginning 24 hours after tumor implantation,twice daily for 3 consecutive days. The test compound was injected as a solution in isotonic saline. The drug was administered intraperitoneally in a volume of 0.25 mL. […] Mice were weighed during the course of the experiments, and the percentage change in body weight from onset to termination of therapy was used as an indication of drug toxicity. Determination of the sensitivity of ascitic neoplasms to this agent were based on the prolongation of survival time afforded by the drug treatments. The median survival time and the ratio of survival time for treated (T)/control (C) was calculated.
3'-Amino-2',3'-dideoxycytidine was screened against CDF1 female mice bearing L1210 leukemia according to the above protocol. Three groups of mice with 4 mice in each group were inoculated with 1×10^5 L1210 murine leukemia cells. Starting 24 hours post inoculation, the first group of mice was injected with saline as the vehicle control, the second group with 160 mg/kg of the test compound in saline twice a day, for 3 days. All control mice died by day 9. In the group treated with the test compound, one mouse died at day 21, the second at day 24, the third at day 29 and the last one at day 31, yielding a T/C×100 value of 283.

S-180 cells [5] = assay: Inhibition of replication of S-180 cells in vitro; assay type: cell-based; conditions: Mus musculus, mean cell counts after 72 hours, triplicate, read-out: ID50 (S-180)
Description: as §1
(§3) 3'-Amino-2',3'-dideoxycytidine was also screened against S-180 neoplastic cells in vitro. The ID50 values were estimated from dose-response curves compiled from at least two independent experiments and represent the drug concentration required to inhibit replication of L1210 or S-180 neoplastic cells by 50%.
(§4) ID50 values were determined from plots of mean cell counts after 72
(§5) hours. Assays were carried out in triplicate with appropriate controls.

L1210 cells [6] = assay: Inhibition of replication of L1210 cells in vitro; assay type: cell-based; conditions: Mus musculus, mean cell counts after 72 hours, triplicate, read-out: ID50 (L1210)
Description: as §1, §3, §4, §5

[7] = 4 mice, all controls died by day 9

Row | Structure (SMILES) | prevention of the cytotoxicity of the novel compound against L1210 cells (L1210 cells [1]; 25 μM 2'-deoxycytidine added to 5 μM of the novel compound) [%] | prevention of the cytotoxicity of the novel compound against L1210 cells (L1210 cells [1]; 100 μM 2'-deoxycytidine added to 5 μM of the novel compound) [%] | preventive effect on the cytotoxicity of the novel compound against L1210 cells (L1210 cells [1]; dose dependence, in words) | prevention of the cytotoxicity of the novel compound against S-180 cells (S-180 cells [2]) [%] | prevention of the cytotoxicity of the novel compound [3] | solubility [4] [mg/mL] | T/C×100 (survival time treated/control) (L1210 leukemia) | day of death, first mouse (L1210 leukemia; [7]) [days] | day of death, last mouse (L1210 leukemia; [7]) [days] | day of death, second mouse (L1210 leukemia; [7]) [days] | day of death, third mouse (L1210 leukemia; [7]) [days] | IC50 (S-180 cells [5]) [nM] | IC50 (L1210 cells [6]) [nM]
1 | Nc1ccn([C@H]2C[C@H](O)[C@@H](CO)O2)c(=O)n1 [2'-deoxycytidine] | 35 | 100 | dose dependent | 27 | uniquely prevented |  |  |  |  |  |  |  | 
2 | Nc1ccn([C@H]2C[C@H](N)[C@@H](CO)O2)c(=O)n1 [3'-amino-2',3'-dideoxycytidine, 3'-Amino-2',3'-dideoxycytidine] |  |  |  |  |  | ~500 (≈ 2210 mM) | 283 | 21 | 31 | 24 | 29 | 4000 | 700
